Laboratory results published in patent publication US7432260B2, “Pyrimidine compounds” (Cyclacel Limted, priority 2002, dated 2008).

How the values were obtained:
CDK4/cyclin D1 = CDK4/cyclin D1 (Homo sapiens, UniProt P11802); assay: Kinase assay CDK4/cyclin D1; assay type: biochemical; details: Table 2; read-out: Kinase Inhibition IC50 CDK4 cyclin D1
Description: (§1) Kinase assays. […] This was achieved by measurement of incorporation of radioactive phosphate from ATP into appropriate polypeptide substrates. Recombinant protein kinases and kinase complexes were produced or obtained commercially. Assays were performed using 96-well plates and appropriate assay buffers (typically 25 mM β-glycerophosphate, 20 mM MOPS, 5 mM EGTA, 1 mM DTT, 1 mM […], pH 7.4), into which were added 2-4 μg of active enzyme with appropriate substrates. The reactions were initiated by addition of Mg/ATP mix (15 mM MgCl2+100 μM ATP with 30-50 kBq per well of [γ-^32P]-ATP) and mixtures incubated as required at 30° C. Reactions were stopped on ice, followed by filtration through p81 filterplates or GF/C filterplates (Whatman Polyfiltronics, Kent, UK). After washing 3 times with 75 mM aq orthophosphoric acid, plates were dried, scintillant added and incorporated radioactivity measured in a scintillation counter (TopCount, Packard Instruments, Pangbourne, Berks, UK). Compounds for kinase assay were made-up as 10 mM stocks in DMSO and diluted into 10% DMSO inrassay buffer.

HT29 = assay: 72-h MTT cytotoxicity assay HT29; assay type: cell-based; details: Homo sapiens, HT-29, 72 h, Table 4
Description: (§2) MTT cytotoxicity assay. […] Standard 72-h MTT (thiazolyl blue; 3-[4,5-dimethylthiazol-2-yl]-2,5-diphenyltetrazolium bromide) assays were performed (Haselsberger, K.; Peterson, D. C.; Thomas, D. G.; Darling, J. L. Anti Cancer Drugs 1996, 7, 331-8; Loveland, B. E.; Johns, T. G.; Mackay, I. R.; Vaillant, F.; Wang, Z. X.; Hertzog, P. J. Biochemistry International 1992, 27, 501-10). In short: cells were seeded into 96-well plates according to doubling time and incubated overnight at 37° C. Test compounds were made up in DMSO and a 1/3 dilution series prepared in 100 μL cell media, added to cells (in triplicates) and incubated for 72 ho at 37° C. MTT was made up as a stock of 5 mg/mL in cell media and filter-sterilised. Media was removed from cells followed by a wash with 200 μL PBS.
(§3) MTT solution was then added at 20 μL per well and incubated in the dark at 37° C. for 4 h. MTT solution was removed and cells again washed with 200 μL PBS. MTT dye was solubilised with 200 μL per well of DMSO with agitation.

CDK2/cyclin A = CDK2/cyclin A (Homo sapiens, UniProt P24941); assay: Kinase assay CDK2/cyclin A; assay type: biochemical; details: Table 2; read-out: Kinase Inhibition IC50 CDK2 cyclin A
Description: as §1

CDK9/cyclin T1 = CDK9/cyclin T1 (Homo sapiens, UniProt P50750); assay: CDK9 assay; assay type: biochemical; details: Table 2; read-out: Kinase Inhibition IC50 CDK9 cyclin T1
CDK9/cyclin T1, sequence (P50750 whole entry): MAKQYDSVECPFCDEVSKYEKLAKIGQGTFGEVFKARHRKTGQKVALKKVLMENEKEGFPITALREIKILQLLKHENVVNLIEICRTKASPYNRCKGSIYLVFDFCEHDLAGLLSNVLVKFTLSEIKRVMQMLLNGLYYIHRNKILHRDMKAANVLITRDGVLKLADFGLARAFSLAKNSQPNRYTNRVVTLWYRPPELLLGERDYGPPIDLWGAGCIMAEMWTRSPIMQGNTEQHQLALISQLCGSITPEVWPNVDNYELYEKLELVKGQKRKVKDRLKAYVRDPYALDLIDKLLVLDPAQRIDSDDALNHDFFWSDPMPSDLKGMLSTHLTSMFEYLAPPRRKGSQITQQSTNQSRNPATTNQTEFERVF
CDK9/cyclin T1, sequence (O60563 whole entry partner): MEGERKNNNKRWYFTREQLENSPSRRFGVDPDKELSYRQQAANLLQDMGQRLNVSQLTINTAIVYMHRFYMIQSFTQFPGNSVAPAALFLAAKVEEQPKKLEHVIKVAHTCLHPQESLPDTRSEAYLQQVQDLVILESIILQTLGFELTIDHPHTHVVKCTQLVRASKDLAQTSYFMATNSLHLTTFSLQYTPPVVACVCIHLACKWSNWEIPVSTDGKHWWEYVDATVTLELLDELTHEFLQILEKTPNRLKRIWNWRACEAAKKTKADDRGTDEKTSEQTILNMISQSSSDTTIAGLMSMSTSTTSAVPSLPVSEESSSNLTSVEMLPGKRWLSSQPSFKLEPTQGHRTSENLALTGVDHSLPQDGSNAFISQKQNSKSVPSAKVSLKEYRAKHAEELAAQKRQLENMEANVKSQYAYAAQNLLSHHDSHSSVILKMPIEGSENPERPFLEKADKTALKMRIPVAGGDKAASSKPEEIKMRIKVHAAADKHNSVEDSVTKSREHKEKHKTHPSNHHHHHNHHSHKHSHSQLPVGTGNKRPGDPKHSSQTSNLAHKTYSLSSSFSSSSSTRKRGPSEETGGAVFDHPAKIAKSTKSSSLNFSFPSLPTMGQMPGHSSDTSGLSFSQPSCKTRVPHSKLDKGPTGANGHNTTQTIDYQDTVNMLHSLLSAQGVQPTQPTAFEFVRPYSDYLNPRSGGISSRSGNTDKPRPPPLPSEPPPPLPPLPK
Description: as §1
(§4) CDK 7 and 9 assays. CTD peptide substrate (biotinyl-Ahx-(Tyr-Ser-Pro-Thr-Ser-Pro-Ser)4-NH2; 1-2 mg/mL) and recombinant human CDK7/cyclin H, CDK9/cyclin T1, or CDK9/cyclin K (0.5-2 μg) were incubated for 45 min at 30° C. in the presence of varying amounts of test compound in 20 mM MOPS pH 7.2, 25 mM β-glycerophosphate, 5 mM EGTA, 1 mM DTT, 1 mM sodium vanadate, 15 mM MgCl2, and 100 μM ATP (containing a trace amount of ^32PγATP) in a total volume of 25 μL in a 96-well microtiter plate. The reaction was stopped by placing the plate on ice for 2 min. Avidin (50 μg) was added to each well, and the plate was incubated at room temp for 30 min. The samples were transferred to a 96-well P81 filter plate, and washed (4×200 μL per well) with 75 mM phosphoric acid. Microscint 40 scintillation liquid (50 μL) was added to each well, and the amount of ^32P incorporation for each sample was measured using a Packard Topcount microplate scintillation counter.

CDK1/cyclin B = CDK1/cyclin B (Homo sapiens, UniProt P06493); assay: Kinase assay CDK1/cyclin B; assay type: biochemical; details: Table 2; read-out: Kinase Inhibition IC50 CDK1 cyclin B
CDK1/cyclin B, sequence (P06493 whole entry): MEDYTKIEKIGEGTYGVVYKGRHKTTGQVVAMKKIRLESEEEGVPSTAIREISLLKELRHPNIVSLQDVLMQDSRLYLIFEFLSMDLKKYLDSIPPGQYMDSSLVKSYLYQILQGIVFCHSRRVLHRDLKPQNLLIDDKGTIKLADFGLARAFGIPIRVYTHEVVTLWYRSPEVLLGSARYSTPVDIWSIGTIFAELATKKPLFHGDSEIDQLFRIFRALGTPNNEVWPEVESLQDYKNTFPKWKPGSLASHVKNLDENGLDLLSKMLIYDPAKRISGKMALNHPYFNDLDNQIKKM
CDK1/cyclin B, sequence (P14635 whole entry partner): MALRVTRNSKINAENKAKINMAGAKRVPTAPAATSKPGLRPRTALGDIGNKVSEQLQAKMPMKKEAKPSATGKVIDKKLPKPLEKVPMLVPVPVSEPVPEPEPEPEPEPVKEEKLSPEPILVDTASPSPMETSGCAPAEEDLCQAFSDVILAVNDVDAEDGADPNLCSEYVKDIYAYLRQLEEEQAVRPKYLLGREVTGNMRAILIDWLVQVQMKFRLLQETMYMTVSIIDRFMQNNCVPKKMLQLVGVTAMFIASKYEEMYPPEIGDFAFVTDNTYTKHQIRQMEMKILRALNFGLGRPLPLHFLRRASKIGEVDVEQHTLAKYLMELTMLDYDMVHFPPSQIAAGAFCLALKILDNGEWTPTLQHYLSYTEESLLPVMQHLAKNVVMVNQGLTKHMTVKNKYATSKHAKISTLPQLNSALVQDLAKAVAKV
Description: as §1

CDK2/cyclin E = CDK2/cyclin E (Homo sapiens, UniProt P24941); assay: Kinase assay CDK2/cyclin E; assay type: biochemical; details: Table 2; read-out: Kinase Inhibition IC50 CDK2 cyclin E
Description: as §1

A549 = assay: 72-h MTT cytotoxicity assay A549; assay type: cell-based; details: Homo sapiens, A549, 72 h, Table 4
Description: as §2, §3

Saos-2 = assay: 72-h MTT cytotoxicity assay Saos-2; assay type: cell-based; details: Homo sapiens, SAOS-2, 72 h, Table 4
Description: as §2, §3

CDK7/cyclin H = CDK7/cyclin H (Homo sapiens, UniProt P50613); assay: CDK7 assay; assay type: biochemical; details: Table 2; read-out: Kinase Inhibition IC50 CDK7 cyclin H
CDK7/cyclin H, sequence (P50613 whole entry): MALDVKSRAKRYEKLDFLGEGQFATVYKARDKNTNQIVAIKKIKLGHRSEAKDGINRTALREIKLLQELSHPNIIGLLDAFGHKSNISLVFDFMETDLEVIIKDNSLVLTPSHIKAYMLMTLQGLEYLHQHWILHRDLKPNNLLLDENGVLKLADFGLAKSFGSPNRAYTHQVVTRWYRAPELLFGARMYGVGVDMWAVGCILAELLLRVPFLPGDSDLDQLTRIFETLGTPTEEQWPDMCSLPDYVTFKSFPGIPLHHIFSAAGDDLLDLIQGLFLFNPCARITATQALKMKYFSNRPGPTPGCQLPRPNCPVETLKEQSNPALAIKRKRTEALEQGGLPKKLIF
Description: as §1, §4

CDK4/cyclin D1, sequence (P11802 whole entry): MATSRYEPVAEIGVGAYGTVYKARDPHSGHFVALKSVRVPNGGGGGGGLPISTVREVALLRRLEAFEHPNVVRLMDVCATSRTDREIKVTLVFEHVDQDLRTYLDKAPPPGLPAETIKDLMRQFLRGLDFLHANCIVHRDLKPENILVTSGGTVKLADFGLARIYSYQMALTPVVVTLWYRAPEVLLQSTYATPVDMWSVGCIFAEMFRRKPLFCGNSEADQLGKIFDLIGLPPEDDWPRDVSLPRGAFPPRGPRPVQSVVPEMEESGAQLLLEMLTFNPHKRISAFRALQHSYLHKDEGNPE
CDK4/cyclin D1, sequence (P24385 whole entry partner): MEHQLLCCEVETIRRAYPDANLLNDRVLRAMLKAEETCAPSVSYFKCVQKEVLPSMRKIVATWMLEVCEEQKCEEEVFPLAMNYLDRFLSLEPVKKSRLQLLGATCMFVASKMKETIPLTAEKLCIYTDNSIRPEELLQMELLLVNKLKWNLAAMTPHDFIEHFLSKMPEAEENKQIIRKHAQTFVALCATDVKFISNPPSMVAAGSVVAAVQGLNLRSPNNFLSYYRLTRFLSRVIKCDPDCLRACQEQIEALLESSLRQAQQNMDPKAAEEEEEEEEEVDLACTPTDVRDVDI

SMILES	IC50 (CDK4/cyclin D1) [nM]	IC50 (CDK2/cyclin A) [nM]	IC50 (CDK9/cyclin T1) [nM]	IC50 (CDK1/cyclin B) [nM]	IC50 (CDK2/cyclin E) [nM]	IC50 (CDK7/cyclin H) [nM]	IC50 (HT29) [nM]	IC50 (A549) [nM]	IC50 (Saos-2) [nM]
COc1ccc(Nc2nccc(-c3sc(NC(=O)CCN4CCOCC4)nc3C)n2)cc1 [Compound 38, N-{5-[2-(4-Methoxy-phenylamino)-pyrimidin-4-yl]-4-methyl-thiazol-2-yl}-3-morpholin-4-yl-propionamide]	1800	580	1100	1900	2700	–	1700	2700	5300
Cc1nc(NC(=O)CCN2CCOCC2)sc1-c1ccnc(Nc2ccc(Cl)cc2)n1 [Compound 35, N-{5-[2-(4-Chloro-phenylamino)-pyrimidin-4-yl]-4-methyl-thiazol-2-yl}-3-morpholin-4-yl-propionamide]	4700	3000	1800	15000	800	–	7700	15000	26000
CCN(CC)CCNCCC(=O)Nc1nc(C)c(-c2ccnc(Nc3ccc(Cl)cc3)n2)s1 [Compound 36, N-{5-[2-(4-Chloro-phenylamino)-pyrimidin-4-yl]-4-methyl-thiazol-2-yl}-3-(2-diethylamino-ethylamino)-propionamide]	8800	13000	4800	33000	3400	4000	9600	26000	38000
COc1ccc(Nc2nccc(-c3sc(NC(=O)CCN4CCN(C)CC4)nc3C)n2)cc1 [Compound 40, N-{5-[2-(4-Methoxy-phenylamino)-pyrimidin-4-yl]-4-methyl-thiazol-2-yl}-3-(4-methyl-piperazin-1-yl)-propionamide]	7400	14000	8900	61000	64000	–	730	4400	4300
Cc1nc(NC(=O)CCNCCN2CCOCC2)sc1-c1ccnc(Nc2ccc(Cl)cc2)n1 [Compound 37, N-{5-[2-(4-Chloro-phenylamino)-pyrimidin-4-yl]-4-methyl-thiazol-2-yl}-3-(2-morpholin-4-yl-ethylamino)-propionamide]	18000	16000	6300	> 100000	8000	–	15000	35000	73000
COc1cccc(Nc2nccc(-c3sc(NC(=O)CCN4CCOCC4)nc3C)n2)c1 [Compound 39, N-{5-[2-(3-Methoxy-phenylamino)-pyrimidin-4-yl]-4-methyl-thiazol-2-yl}-3-morpholin-4-yl-propionamide]	32000	2700	15000	11000	1200	–	720	800	950
Cc1nc(NC(=O)[C@@H](N)CO)sc1-c1ccnc(Nc2cccc([N+](=O)[O-])c2)n1 [Compound 14, (2S)-2-Amino-3-hydroxy-N-{4-methyl-5-[2-(3-nitro-phenylamino)-pyrimidin-4-yl]-thiazol-2-yl}-propionamide]	2200	–	340	–	68	–	730	990	1500

These reach a lower IC50 (CDK4/cyclin D1). Values come first.

IC50 (CDK4/cyclin D1) [nM]	IC50 (CDK2/cyclin A) [nM]	IC50 (CDK9/cyclin T1) [nM]	IC50 (CDK1/cyclin B) [nM]	IC50 (CDK2/cyclin E) [nM]	IC50 (CDK7/cyclin H) [nM]	SMILES	IC50 (HT29) [nM]	IC50 (A549) [nM]	IC50 (Saos-2) [nM]
620	1300	–	4200	1800	2200	Cc1nc(C)c(-c2ccnc(Nc3ccc(N4CCN(CCOCCO)CC4)cc3)n2)s1 [Compound 7, [4-(2,4-Dimethyl-thiazol-5-yl)-pyrimidin-2-yl]-[4-(4′-2″-ethoxylethanolpiperazino)-phenyl]-amine]	1600	3900	1600
180	1300	–	2500	440	2000	Cc1nc(C)c(-c2ccnc(Nc3ccc(NC(=O)Cn4cncn4)cc3)n2)s1 [Compound 52, N-{4-[4-(2,4-Dimethyl-thiazol-5-yl)-pyrimidin-2-ylamino]-phenyl}-2-[1,2,4]triazol-1-yl-acetamide]	1600	1600	1100
370	840	240	2500	660	17000	CC(=O)Nc1ccc(Nc2nccc(-c3sc(C)nc3C)n2)cc1 [Compound 45, N-{4-[4-(2,4-Dimethyl-thiazol-5-yl)-pyrimidin-2-ylamino]-phenyl}-acetamide]	2200	2600	2800
440	–	5.8	–	1100	–	Cc1nc(NC(=O)CCl)sc1-c1ccnc(Nc2cccc([N+](=O)[O-])c2)n1 [Compound 24, 2-Chloro-N-{4-methyl-5-[2-(3-nitro-phenylamino)-pyrimidin-4-yl]-thiazol-2-yl}-acetamide]	140	140	170
1100	–	530	–	180	–	Cc1nc(NC(=O)CCCN)sc1-c1ccnc(Nc2cccc([N+](=O)[O-])c2)n1 [Compound 18, 4-Amino-N-{4-methyl-5-[2-(3-nitro-phenylamino)-pyrimidin-4-yl]-thiazol-2-yl}-butyramide]	2400	2500	1100
430	1200	210	5200	2200	1300	Cc1nc(C)c(-c2ccnc(Nc3ccc(N4CCN(CCO)CC4)cc3)n2)s1 [Compound 9, 2-(4-{4-[4-(2,4-Dimethyl-thiazol-5-yl)-pyrimidin-2-ylamino]-phenyl}-piperazin-1-yl)-ethanol]	2000	3000	2000
670	570	42	5600	280	370	Cc1nc(NC(=O)CCN)sc1-c1ccnc(Nc2cccc([N+](=O)[O-])c2)n1 [Compound 13, 3-Amino-N-{4-methyl-5-[2-(3-nitro-phenylamino)-pyrimidin-4-yl]-thiazol-2-yl}-propionamide]	2800	3100	1900
770	520	37	1900	76	–	Cc1nc(NC(=O)CCBr)sc1-c1ccnc(Nc2ccc(F)cc2)n1 [Compound 20, 3-Bromo-N-{5-[2-(4-fluoro-phenylamino)-pyrimidin-4-yl]-4-methyl-thiazol-2-yl}-propionamide]	6300	5800	–
